The values below come from article PMC3084506 (Archives of Drug Information, 2011).

In one series the test system is MDCKI cells. Kind of series: Effect of inhibitors on ciprofloxacin bidirectional transport in MDCKI cells. The settings on record: 25 µM ciprofloxacin, inhibitor concentrations as in Figure 4 legend.
The conditions of series [1]: cited from earlier work.
Series [2] in a line: Bidirectional transport study in MDCKI cells. The settings on record: dog, MDCK. In kind it is in vitro ADME, canine.
The nature of series [3]: Bidirectional transport study in LLC-PK1 cells. In kind it is in vitro ADME. The settings on record: pig.
The target of another series is MRP1 (L-MRP1 cells) (Homo sapiens, UniProt P33527). The series is described as follows: Bidirectional transport study in L-MRP1 cells. In kind it is in vitro ADME. The settings on record: LLC-PK1.
In series [4] the target is T1, P-gp (L-MDR1 cells) (Homo sapiens, UniProt P08183). Kind of series: Bidirectional transport study in L-MDR1 cells. In kind it is in vitro ADME. The settings on record: LLC-PK1.
A short description of the next series: in vitro. The settings on record: human, MDCK-MDR1.
For series [5] the following is noted: humans; cited from earlier work.
For another series, the system named is OAT3. The settings on record: cited from earlier work.
The test system of series [6] is P-gp (MDCKI-MDR1 cells). The settings on record: MDCKI-MDR1 and L-MDR1 cells; cited from earlier work.
The next series concerns the target P-gp (MDCKII-MDR1 cells) (Homo sapiens, UniProt P08183). The settings on record: MDCKII vs MDCKII-MDR1; cited from earlier work.
In series [7] the test system is P-gp (MDCKI-MDR1 cells). The settings on record: studies done in our lab.
Series [8] addresses T1, P-gp (L-MDR1 cells). The settings on record: LLC-PK1 vs L-MDR1, cited from earlier work.

Entries after “also recorded” stand apart in the source; their conditions may differ. Like-named read-outs stand apart in the source and are kept apart here. Square brackets hold non-standard residues; d marks the D form. Peptide text beside a SMILES is read from it. Sar = CNCC(=O)O

T1 sequence (P08183 whole entry): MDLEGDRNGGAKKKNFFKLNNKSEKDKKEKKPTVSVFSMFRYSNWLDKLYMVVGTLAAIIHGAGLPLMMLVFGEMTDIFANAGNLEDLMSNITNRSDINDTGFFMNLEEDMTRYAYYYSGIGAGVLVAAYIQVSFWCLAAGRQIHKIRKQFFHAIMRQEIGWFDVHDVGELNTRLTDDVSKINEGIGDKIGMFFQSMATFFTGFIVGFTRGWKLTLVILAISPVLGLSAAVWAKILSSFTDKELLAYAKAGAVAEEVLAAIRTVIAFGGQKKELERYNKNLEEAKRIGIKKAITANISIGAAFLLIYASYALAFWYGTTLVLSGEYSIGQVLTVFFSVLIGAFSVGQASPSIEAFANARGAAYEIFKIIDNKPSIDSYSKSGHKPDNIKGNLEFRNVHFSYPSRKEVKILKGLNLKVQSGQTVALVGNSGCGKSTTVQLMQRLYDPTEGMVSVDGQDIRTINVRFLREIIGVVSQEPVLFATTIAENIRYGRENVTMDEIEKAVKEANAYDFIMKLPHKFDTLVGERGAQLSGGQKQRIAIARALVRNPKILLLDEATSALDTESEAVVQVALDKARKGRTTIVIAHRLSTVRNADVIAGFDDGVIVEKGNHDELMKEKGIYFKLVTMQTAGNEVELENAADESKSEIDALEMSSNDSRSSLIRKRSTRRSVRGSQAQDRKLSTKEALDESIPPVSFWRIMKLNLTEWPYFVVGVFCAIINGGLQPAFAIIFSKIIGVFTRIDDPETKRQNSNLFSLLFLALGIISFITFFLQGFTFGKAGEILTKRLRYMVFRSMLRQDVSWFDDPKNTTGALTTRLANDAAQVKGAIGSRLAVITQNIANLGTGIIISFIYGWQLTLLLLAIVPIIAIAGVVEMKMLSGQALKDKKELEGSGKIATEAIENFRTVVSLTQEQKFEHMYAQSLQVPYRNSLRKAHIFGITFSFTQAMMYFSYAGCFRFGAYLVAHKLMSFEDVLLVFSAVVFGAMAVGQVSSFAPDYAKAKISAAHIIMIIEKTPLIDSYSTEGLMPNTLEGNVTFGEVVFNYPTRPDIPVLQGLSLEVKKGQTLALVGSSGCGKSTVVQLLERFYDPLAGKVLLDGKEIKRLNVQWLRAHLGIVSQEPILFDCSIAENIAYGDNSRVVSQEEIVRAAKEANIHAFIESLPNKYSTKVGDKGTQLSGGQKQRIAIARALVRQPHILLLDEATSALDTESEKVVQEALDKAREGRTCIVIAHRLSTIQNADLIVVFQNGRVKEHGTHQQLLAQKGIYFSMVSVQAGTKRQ
Sequence of P-gp (MDCKII-MDR1 cells) (P08183 whole entry): as above
Sequence of MRP1 (L-MRP1 cells) (P33527 whole entry): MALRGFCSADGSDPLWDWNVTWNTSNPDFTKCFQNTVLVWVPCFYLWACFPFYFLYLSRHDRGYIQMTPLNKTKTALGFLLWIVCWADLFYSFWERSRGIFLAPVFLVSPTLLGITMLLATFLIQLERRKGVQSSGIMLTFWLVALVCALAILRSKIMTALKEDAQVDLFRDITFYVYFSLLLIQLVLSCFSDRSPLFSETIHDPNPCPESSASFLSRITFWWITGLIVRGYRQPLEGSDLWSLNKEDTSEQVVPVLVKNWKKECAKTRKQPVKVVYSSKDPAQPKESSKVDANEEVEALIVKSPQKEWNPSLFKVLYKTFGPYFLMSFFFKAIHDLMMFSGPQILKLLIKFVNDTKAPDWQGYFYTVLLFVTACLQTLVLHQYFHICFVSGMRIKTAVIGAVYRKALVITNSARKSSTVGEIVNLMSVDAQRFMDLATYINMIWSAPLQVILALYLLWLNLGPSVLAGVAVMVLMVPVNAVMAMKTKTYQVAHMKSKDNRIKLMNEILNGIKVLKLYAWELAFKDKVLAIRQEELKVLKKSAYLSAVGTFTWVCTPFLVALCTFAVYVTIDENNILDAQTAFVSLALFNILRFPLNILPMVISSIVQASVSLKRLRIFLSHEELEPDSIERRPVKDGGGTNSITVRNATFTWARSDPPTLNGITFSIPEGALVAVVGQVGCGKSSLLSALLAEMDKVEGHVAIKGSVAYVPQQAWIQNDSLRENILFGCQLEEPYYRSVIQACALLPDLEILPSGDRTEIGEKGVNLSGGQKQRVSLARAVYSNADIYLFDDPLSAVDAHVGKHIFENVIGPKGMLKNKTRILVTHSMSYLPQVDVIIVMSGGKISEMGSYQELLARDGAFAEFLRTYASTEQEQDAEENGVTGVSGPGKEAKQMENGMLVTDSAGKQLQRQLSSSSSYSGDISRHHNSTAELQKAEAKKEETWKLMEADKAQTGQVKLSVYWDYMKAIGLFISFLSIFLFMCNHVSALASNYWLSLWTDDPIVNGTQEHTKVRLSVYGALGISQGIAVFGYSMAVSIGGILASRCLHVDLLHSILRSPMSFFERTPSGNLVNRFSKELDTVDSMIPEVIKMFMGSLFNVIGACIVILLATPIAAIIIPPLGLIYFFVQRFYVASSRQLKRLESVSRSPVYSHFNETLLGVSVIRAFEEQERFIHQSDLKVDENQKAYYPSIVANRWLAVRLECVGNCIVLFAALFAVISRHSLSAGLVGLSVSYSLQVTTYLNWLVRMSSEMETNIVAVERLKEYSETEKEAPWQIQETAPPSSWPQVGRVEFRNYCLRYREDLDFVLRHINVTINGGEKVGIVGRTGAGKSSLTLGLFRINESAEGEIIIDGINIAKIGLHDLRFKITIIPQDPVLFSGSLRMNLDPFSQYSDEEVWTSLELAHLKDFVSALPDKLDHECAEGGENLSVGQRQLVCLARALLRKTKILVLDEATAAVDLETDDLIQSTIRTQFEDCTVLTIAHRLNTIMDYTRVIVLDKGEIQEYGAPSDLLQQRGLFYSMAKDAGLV

On to `COc1cc2c(cc1OC)CN(CCc1ccc(NC(=O)c3cccc4c(=O)c5cccc(OC)c5[nH]c34)cc1)CC2` [GG918], for which the “effect on ciprofloxacin transport in MDCKI cells (in words)” value (from here on “effect on ciprofloxacin transport”) with MDCKI cells is recorded as “no significant effects”.

For the molecule `O=C(O)c1cn(C2CC2)c2cc(N3CCNCC3)c(F)cc2c1=O` [ciprofloxacin], the “eliminated via intestinal secretion” value in [1] is reported as “at least 10%”.

`CN(CC(=O)O)C(=O)CN` [glycosarcosine] (H-Gly-[Sar]-OH): the “effect on ciprofloxacin transport” value with MDCKI cells is listed as “no significant effects; also recorded: no effect”.

`OC[C@@H](O)[C@@H](O)[C@H](O)[C@H](O)CO` [mannitol]: the apparent permeability coefficient (Papp) at 1 h is around 0.5 ×10⁻⁶ cm/s in [2]; around 1.3 ×10⁻⁶ cm/s in [3]; around 3.5 ×10⁻⁶ cm/s on MRP1 (L-MRP1 cells); around 1.2 ×10⁻⁶ cm/s at P-gp (L-MDR1 cells) [4]; around 0.5 ×10⁻⁶ cm/s in “in vitro”.

In the case of `CCCN(CCC)S(=O)(=O)c1ccc(C(=O)O)cc1` [probenecid], the “effect on ciprofloxacin renal secretion” value in series [5] is reported as “competitively inhibit”. The “interaction with OAT3” value in the series with OAT3 is “inhibitor of OAT3”.

For `C=C[C@H]1C[N@@]2CC[C@H]1C[C@@H]2[C@@H](O)c1ccnc2ccc(OC)cc12` [quinidine], the “effect on ciprofloxacin transport” value in the series with MDCKI cells is listed as “no significant effects”.

Regarding `COc1cc(Cc2cnc(N)nc2N)cc(OC)c1OC` [trimethoprim], the “P-gp substrate status from transport studies” value in the series on P-gp (MDCKI-MDR1 cells) [6] is recorded as “substrate of P-gp”. In addition, on P-gp (MDCKII-MDR1 cells), the “difference in transport between MDCKII and MDCKII-MDR1 cells” value is “no difference”.

On to `CC[C@]1(O)C[C@@H]2CN(CCc3c([nH]c4ccccc34)[C@@](C(=O)OC)(c3cc4c(cc3OC)N(C)[C@H]3[C@@](O)(C(=O)OC)[C@H](OC(C)=O)[C@]5(CC)C=CCN6CC[C@]43[C@@H]65)C2)C1` [vinblastine], for which, in the series on P-gp (MDCKI-MDR1 cells) [7], the “P-gp substrate status from transport studies” value is given as “substrate of P-gp”. Also, the “difference in transport between LLC-PK1 and L-MDR1 cells” value on P-gp (L-MDR1 cells) [8] is reported as “no difference”; at P-gp (L-MDR1 cells) [8] (listed as Vinblastine), “did not show differences”. Besides, the “effect on ciprofloxacin transport” value with MDCKI cells is “no significant effects”.

By Papp is commonly meant a coefficient for how fast a substance crosses the barrier.
